From patent US20080269241A1, “BICYCLIC AMINOPROPYL TETRAHYDRO-PYRAZOLO-PYRIDINE MODULATORS OF CATHEPSIN S” (priority 2007, published 2008)

Target: T1, human cathepsin S (CatS) (Homo sapiens, UniProt P25774)
T1 construct: made in house; host or cells: baculovirus system (insect cells)
Experiment: Recombinant human cathepsin S (CatS) fluorogenic substrate inhibition assay
Format: biochemical
Details: recombinant human CatS, 10 μM Z-Valine-Valine-Arginine-AMC, pH 5.0; average of results obtained; read-out: CatS IC50
Procedure: Recombinant human cathepsin S (CatS) was expressed in the baculovirus system and purified in one step with a thiopropyl-sepharose column. […] The assay is run in 150 mM sodium acetate pH 5.0 containing 1.5 mM DTT and 150 mM NaCl. […] Measurements are taken every min for 20 min. The rate is calculated from the slope of the increase in fluorescence and the percent inhibition is calculated from this.

T1 sequence (P25774 115-331): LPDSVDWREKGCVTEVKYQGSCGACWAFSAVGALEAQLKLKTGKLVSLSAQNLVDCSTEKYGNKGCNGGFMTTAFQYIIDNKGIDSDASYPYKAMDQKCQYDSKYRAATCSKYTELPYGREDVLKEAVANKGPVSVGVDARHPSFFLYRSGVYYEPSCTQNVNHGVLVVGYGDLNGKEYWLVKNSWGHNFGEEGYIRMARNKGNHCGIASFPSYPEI

Row | IC50 [µM] | SMILES
1 | 0.32 | CS(=O)(=O)N1CCc2c(c(-c3ccc(C(F)(F)F)c(CNC(=O)/C=C/c4ccccc4)c3)nn2CC(O)CN2CCC(N3CCCC3=O)CC2)C1 (centres unmarked) [Example 55, N-[5-(1-{2-Hydroxy-3-[4-(2-oxo-pyrrolidin-1-yl)-piperidin-1-yl]-propyl}-5-methanesulfonyl-4,5,6,7-tetrahydro-1H-pyrazolo[4,3-c]pyridin-3-yl)-2-trifluoromethyl-benzyl]-3-phenyl-acrylamide]
2 | 0.06 | CS(=O)(=O)N1CCc2c(c(-c3ccc(C(F)(F)F)c(CNC(=O)c4ccc(F)cc4O)c3)nn2CC(O)CN2CCC(N3CCCC3=O)CC2)C1 (centres unmarked) [Example 104, 4-Fluoro-2-hydroxy-N-[5-(1-{2-hydroxy-3-[4-(2-oxo-pyrrolidin-1-yl)-piperidin-1-yl]-propyl}-5-methanesulfonyl-4,5,6,7-tetrahydro-1H-pyrazolo[4,3-c]pyridin-3-yl)-2-trifluoromethyl-benzyl]-benzamide]
3 | 0.04 | CS(=O)(=O)N1CCc2c(c(-c3ccc(C(F)(F)F)c(CNC(=O)c4cccs4)c3)nn2CC(O)CN2CCC(N3CCCC3=O)CC2)C1 (centres unmarked) [Example 105, Thiophene-2-carboxylic acid 5-(1-{2-hydroxy-3-[4-(2-oxo-pyrrolidin-1-yl)-piperidin-1-yl]-propyl}-5-methanesulfonyl-4,5,6,7-tetrahydro-1H-pyrazolo[4,3-c]pyridin-3-yl)-2-trifluoromethyl-benzylamide]
4 | 0.06 | CS(=O)(=O)N1CCc2c(c(-c3ccc(C(F)(F)F)c(CNC(=O)c4cc5ccccc5s4)c3)nn2CC(O)CN2CCC(N3CCCC3=O)CC2)C1 (centres unmarked) [Example 106, Benzo[b]thiophene-2-carboxylic acid 5-(1-{2-hydroxy-3-[4-(2-oxo-pyrrolidin-1-yl)-piperidin-1-yl]-propyl}-5-methanesulfonyl-4,5,6,7-tetrahydro-1H-pyrazolo[4,3-c]pyridin-3-yl)-2-trifluoromethyl-benzylamide]
5 | 0.07 | CS(=O)(=O)N1CCc2c(c(-c3ccc(C(F)(F)F)c(CNC(=O)c4ccc(CO)cc4)c3)nn2CC(O)CN2CCC(N3CCCC3=O)CC2)C1 (centres unmarked) [Example 107, 4-Hydroxymethyl-N-[5-(1-{2-hydroxy-3-[4-(2-oxo-pyrrolidin-1-yl)-piperidin-1-yl]-propyl}-5-methanesulfonyl-4,5,6,7-tetrahydro-1H-pyrazolo[4,3-c]pyridin-3-yl)-2-trifluoromethyl-benzyl]-benzamide]
6 | 0.08 | CC(=O)c1ccc(C(=O)NCc2cc(-c3nn(CC(O)CN4CCC(N5CCCC5=O)CC4)c4c3CN(S(C)(=O)=O)CC4)ccc2C(F)(F)F)s1 (centres unmarked) [Example 109, 5-Acetyl-thiophene-2-carboxylic acid 5-(1-{2-hydroxy-3-[4-(2-oxo-pyrrolidin-1-yl)-piperidin-1-yl]-propyl}-5-methanesulfonyl-4,5,6,7-tetrahydro-1H-pyrazolo[4,3-c]pyridin-3-yl)-2-trifluoromethyl-benzylamide]
7 | 0.1 | CS(=O)(=O)N1CCc2c(c(-c3ccc(C(F)(F)F)c(CNC(=O)c4cscn4)c3)nn2CC(O)CN2CCC(N3CCCC3=O)CC2)C1 (centres unmarked) [Example 114, Thiazole-4-carboxylic acid 5-(1-{2-hydroxy-3-[4-(2-oxo-pyrrolidin-1-yl)-piperidin-1-yl]-propyl}-5-methanesulfonyl-4,5,6,7-tetrahydro-1H-pyrazolo[4,3-c]pyridin-3-yl)-2-trifluoromethyl-benzylamide]
8 | 0.14 | CS(=O)(=O)c1ccc(C(=O)NCc2cc(-c3nn(CC(O)CN4CCC(N5CCCC5=O)CC4)c4c3CN(S(C)(=O)=O)CC4)ccc2C(F)(F)F)s1 (centres unmarked) [Example 119, 5-Methanesulfonyl-thiophene-2-carboxylic acid 5-(1-{2-hydroxy-3-[4-(2-oxo-pyrrolidin-1-yl)-piperidin-1-yl]-propyl}-5-methanesulfonyl-4,5,6,7-tetrahydro-1H-pyrazolo[4,3-c]pyridin-3-yl)-2-trifluoromethyl-benzylamide]
9 | 0.15 | CS(=O)(=O)N1CCc2c(c(-c3ccc(C(F)(F)F)c(CNC(=O)c4ccc(-c5ccccn5)s4)c3)nn2CC(O)CN2CCC(N3CCCC3=O)CC2)C1 (centres unmarked) [Example 121, 5-Pyridin-2-yl-thiophene-2-carboxylic acid 5-(1-{2-hydroxy-3-[4-(2-oxo-pyrrolidin-1-yl)-piperidin-1-yl]-propyl}-5-methanesulfonyl-4,5,6,7-tetrahydro-1H-pyrazolo[4,3-c]pyridin-3-yl)-2-trifluoromethyl-benzylamide]
10 | 0.18 | Cc1nn(C)c2sc(C(=O)NCc3cc(-c4nn(CC(O)CN5CCC(N6CCCC6=O)CC5)c5c4CN(S(C)(=O)=O)CC5)ccc3C(F)(F)F)cc12 (centres unmarked) [Example 123, 1,3-Dimethyl-1H-thieno[2,3-c]pyrazole-5-carboxylic acid 5-(1-{2-hydroxy-3-[4-(2-oxo-pyrrolidin-1-yl)-piperidin-1-yl]-propyl}-5-methanesulfonyl-4,5,6,7-tetrahydro-1H-pyrazolo[4,3-c]pyridin-3-yl)-2-trifluoromethyl-benzylamide]
11 | 0.18 | CS(=O)(=O)N1CCc2c(c(-c3ccc(C(F)(F)F)c(CNC(=O)c4ccc[nH]4)c3)nn2CC(O)CN2CCC(N3CCCC3=O)CC2)C1 (centres unmarked) [Example 124, 1H-Pyrrole-2-carboxylic acid 5-(1-{2-hydroxy-3-[4-(2-oxo-pyrrolidin-1-yl)-piperidin-1-yl]-propyl}-5-methanesulfonyl-4,5,6,7-tetrahydro-1H-pyrazolo[4,3-c]pyridin-3-yl)-2-trifluoromethyl-benzylamide]

Second part, the molecule before the results:

Row | SMILES | IC50 [µM]
12 | CS(=O)(=O)N1CCc2c(c(-c3ccc(Cl)c(CNC(=O)c4ccc(F)cc4)c3)nn2CC(O)CN2CCC(N3CCCCC3=O)CC2)C1 (centres unmarked) [Example 72, N-(2-Chloro-5-{1-[2-hydroxy-3-(2-oxo-[1,4′]bipiperidinyl-1′-yl)-propyl]-5-methanesulfonyl-4,5,6,7-tetrahydro-1H-pyrazolo[4,3-c]pyridin-3-yl}-benzyl)-4-fluoro-benzamide] | 0.01
13 | CN(C)c1ccc2c(n1)n(C1CCN(CC(O)Cn3nc(-c4ccc(Cl)c(CNC(=O)c5ccc(F)cc5)c4)c4c3CCN(S(C)(=O)=O)C4)CC1)c(=O)n2C (centres unmarked) [Example 76, N-[2-Chloro-5-(1-{3-[4-(5-dimethylamino-1-methyl-2-oxo-1,2-dihydroimidazo[4,5-b]pyridin-3-yl)-piperidin-1-yl]-2-hydroxy-propyl}-5-methanesulfonyl-4,5,6,7-tetrahydro-1H-pyrazolo[4,3-c]pyridin-3-yl)-benzyl]-4-fluoro-benzamide] | 0.01
14 | CS(=O)(=O)N1CCc2c(c(-c3ccc(Cl)c(CNC(=O)c4ccc(F)cc4)c3)nn2CC(O)CN2CCC(N3CCOCC3)CC2)C1 (centres unmarked) [Example 79, N-(2-Chloro-5-{1-[2-hydroxy-3-(4-morpholin-4-yl-piperidin-1-yl)-propyl]-5-methanesulfonyl-4,5,6,7-tetrahydro-1H-pyrazolo[4,3-c]pyridin-3-yl}-benzyl)-4-fluoro-benzamide] | 0.06
15 | CS(=O)(=O)N1CCc2c(c(-c3ccc(C(F)(F)F)c(CNC(=O)CC4CCCC4)c3)nn2CCCN2CCC(N3CCCC3=O)CC2)C1 [Example 108, 2-Cyclopentyl-N-[5-(5-methanesulfonyl-1-{3-[4-(2-oxo-pyrrolidin-1-yl)-piperidin-1-yl]-propyl}-4,5,6,7-tetrahydro-1H-pyrazolo[4,3-c]pyridin-3-yl)-2-trifluoromethyl-benzyl]-acetamide] | 0.08
16 | CCCC(=O)NCc1cc(-c2nn(CCCN3CCC(N4CCCC4=O)CC3)c3c2CN(S(C)(=O)=O)CC3)ccc1C(F)(F)F [Example 110, N-[5-(5-Methanesulfonyl-1-{3-[4-(2-oxo-pyrrolidin-1-yl)-piperidin-1-yl]-propyl}-4,5,6,7-tetrahydro-1H-pyrazolo[4,3-c]pyridin-3-yl)-2-trifluoromethyl-benzyl]-butyramide] | 0.09
17 | CS(=O)(=O)N1CCc2c(c(-c3ccc(C(F)(F)F)c(CNC(=O)CC4CCCCC4)c3)nn2CCCN2CCC(N3CCCC3=O)CC2)C1 [Example 111, 2-Cyclohexyl-N-[5-(5-methanesulfonyl-1-{3-[4-(2-oxo-pyrrolidin-1-yl)-piperidin-1-yl]-propyl}-4,5,6,7-tetrahydro-1H-pyrazolo[4,3-c]pyridin-3-yl)-2-trifluoromethyl-benzyl]-acetamide] | 0.1
18 | CS(=O)(=O)N1CCc2c(c(-c3ccc(C(F)(F)F)c(CNC(=O)N4CCCCC4)c3)nn2CC(O)CN2CCC(N3CCCC3=O)CC2)C1 (centres unmarked) [Example 112, Piperidine-1-carboxylic acid 5-(1-{2-hydroxy-3-[4-(2-oxo-pyrrolidin-1-yl)-piperidin-1-yl]-propyl}-5-methanesulfonyl-4,5,6,7-tetrahydro-1H-pyrazolo[4,3-c]pyridin-3-yl)-2-trifluoromethyl-benzylamide] | 0.1
19 | CS(=O)(=O)N1CCc2c(c(-c3ccc(C(F)(F)F)c(CNC(=O)c4ccc5[nH]c(=O)[nH]c5c4)c3)nn2CC(O)CN2CCC(N3CCCC3=O)CC2)C1 (centres unmarked) [Example 120, 2-Oxo-2,3-dihydro-1H-benzoimidazole-5-carboxylic acid 5-(1-{2-hydroxy-3-[4-(2-oxo-pyrrolidin-1-yl)-piperidin-1-yl]-propyl}-5-methanesulfonyl-4,5,6,7-tetrahydro-1H-pyrazolo[4,3-c]pyridin-3-yl)-2-trifluoromethyl-benzylamide] | 0.14
20 | CN1CCOc2cc(C(=O)NCc3cc(-c4nn(CC(O)CN5CCC(N6CCCC6=O)CC5)c5c4CN(S(C)(=O)=O)CC5)ccc3C(F)(F)F)ccc21 (centres unmarked) [Example 122, 4-Methyl-3,4-dihydro-2H-benzo[1,4]oxazine-7-carboxylic acid 5-(1-{2-hydroxy-3-[4-(2-oxo-pyrrolidin-1-yl)-piperidin-1-yl]-propyl}-5-methanesulfonyl-4,5,6,7-tetrahydro-1H-pyrazolo[4,3-c]pyridin-3-yl)-2-trifluoromethyl-benzylamide] | 0.17
